# Results as given in ChEMBL document CHEMBL1149492, “Discovery of potent and stable conformationally constrained analogues of the MCH R1 antagonist SB-568849” (Bioorg Med Chem Lett, 2006).
# pKi: −log10 of the molar value.
# Experiments:
# [1] = target: Melanin-concentrating hormone receptor 1 (Homo sapiens, UniProt Q99705); test: Displacement of radiolabeled iodo-MCH from human MCHR1 expressed in HEK293 cells; type: cell-based
# [2] = Stability in aqueous phosphate buffer at pH 7; type: physicochemical
# [3] = tested on: Liver microsomes; test: Intrinsic clearance in human liver microsome; type: ADME
# Chain of Melanin-concentrating hormone receptor 1 (Q99705 whole entry): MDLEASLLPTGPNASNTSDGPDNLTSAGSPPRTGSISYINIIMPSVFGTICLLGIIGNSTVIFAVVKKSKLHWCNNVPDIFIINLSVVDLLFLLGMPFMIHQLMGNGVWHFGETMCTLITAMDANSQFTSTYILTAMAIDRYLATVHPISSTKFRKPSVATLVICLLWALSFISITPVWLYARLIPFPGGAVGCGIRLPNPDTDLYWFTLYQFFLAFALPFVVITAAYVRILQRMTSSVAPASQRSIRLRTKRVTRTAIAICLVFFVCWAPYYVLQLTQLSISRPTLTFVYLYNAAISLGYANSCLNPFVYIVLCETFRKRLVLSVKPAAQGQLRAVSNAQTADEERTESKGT
SMILES,pKi [1],also measured
COc1cc(-n2nnc3ccc(Oc4ccccc4)cc3c2=O)ccc1OCCN1CCCC1,7.40,
COc1cc(-n2cnc3sc(-c4ccccc4)cc3c2=O)ccc1OCCN1CCCC1,6.10,
COc1cc(-n2cnc3cc(-c4ccccc4)sc3c2=O)ccc1OCCN1CCCC1,7.70,Stability [2]: Stable
CC(C)N(CCOc1ccc(N(C)C(=O)c2ccc3c(c2)CCc2ccccc2-3)cc1)C(C)C,6.50,
COc1cc(N2Cc3ccc(-c4ccccc4)cc3C2=O)ccc1OCCN(C(C)C)C(C)C,6.40,
COc1cc(-n2cnc3cc(Oc4ccccc4)ccc3c2=O)ccc1OCCN1CCCC1,7.30,
COc1cc(N2C(=O)c3ccc(Oc4ccccc4)cc3C2=O)ccc1OCCN1CCCC1,,Activity [2]: Not Active
COc1cc(-n2nnc3cc(Oc4ccccc4)ccc3c2=O)ccc1OCCN1CCCC1,7.10,
COc1cc(N2C(=O)c3ccc(Sc4ccccc4)cc3C2=O)ccc1OCCN1CCCC1,7.50,Activity [2]: Not Active
COc1cc(-n2cnc3ccc(Oc4ccccc4)cc3c2=O)ccc1OCCN1CCCC1,6.50,
CC(C)N(CCOc1ccc(N(C)C(=O)c2ccc3c(c2)Cc2ccccc2-3)cc1)C(C)C,6.40,
COc1cc(-n2cnc3ccc(-c4ccc(Cl)cc4)cc3c2=O)ccc1OCCN1CCCC1,6.00,
COc1cc(N2C(=O)c3ccc(-c4ccccc4)cc3C2=O)ccc1OCCN(C(C)C)C(C)C,6.90,

# More lines, main results first:
pKi [1],SMILES,also measured
7.30,COc1cc(NC(=O)c2ccc(C3CCCCC3)cc2)ccc1OC12CCCN(CC1)C2 (centres undefined),
7.10,CCN1CCN(c2ccc(NC(=O)c3ccc(C4CCCCC4)cc3)cc2OC)CC1,
5.60,O=C(Nc1ccc(OCCN2CCCC2)cc1)c1ccc2oc3ccccc3c2c1,
6.00,O=C(Nc1ccc(OCCN2CCCC2)cc1)c1ccc2c(c1)CCc1ccccc1-2,
6.70,CC(C)N(CCOc1ccc(NC(=O)c2ccc3c(c2)C(=O)c2ccccc2-3)cc1)C(C)C,
7.20,COc1cc(NC(=O)c2ccc(C3CCCCC3)cc2)ccc1OC1CCN(C)C1 (centres undefined),
7.40,COc1cc(NC(=O)c2ccc(C3CCCCC3)cc2)ccc1OC[C@@H]1CCCN1C,
5.60,COc1cc(NC(=O)c2ccc(C3CCCCC3)cc2)ccc1O[C@H]1CCCC[C@@H]1N(C)C,
7.60,COc1cc(-n2nnc3cc(-c4ccccc4)ccc3c2=O)ccc1OCCN1CCCC1,CL [3]: < 1.5 mL/min/g; Stability [2]: Stable
7.10,COc1cc(NC(=O)c2ccc(C3CCCCC3)cc2)ccc1OC[C@H]1CCCN1C,
7.80,COc1cc(N2C(=O)c3ccc(Nc4ccccc4)cc3C2=O)ccc1OCCN1CCCC1,Activity [2]: Not Active
7.70,COc1cc(-n2cnc3cc(-c4ccccc4)ccc3c2=O)ccc1OCCN1CCCC1,CL [3]: < 1.5 mL/min/g; Stability [2]: Stable
6.30,O=C(Nc1ccc(OCCN2CCCC2)cc1)c1ccc2c(c1)Cc1ccccc1-2,
5.70,COc1cc(N(C)C(=O)c2ccc3oc4ccccc4c3c2)ccc1OCCN(C(C)C)C(C)C,
